pIC50: −log10 of the molar value.
molecular target: T1, GLUT1 (Homo sapiens, UniProt P11166); assay: Indirect measurement of GLUT activity by quantification of intracellular ATP levels (glucose induced ATP increase); assay type: cell-based; settings: DLD1 cells; 1 mM glucose, 1 uM Rotenone, 15 min; standardized to cytochalasin B IC50 values; read-out: IC50 regarding glucose induced ATP increase (GLUT1 inhibition)
T1 construct: endogenous in cells
T1 sequence (P11166 1-492): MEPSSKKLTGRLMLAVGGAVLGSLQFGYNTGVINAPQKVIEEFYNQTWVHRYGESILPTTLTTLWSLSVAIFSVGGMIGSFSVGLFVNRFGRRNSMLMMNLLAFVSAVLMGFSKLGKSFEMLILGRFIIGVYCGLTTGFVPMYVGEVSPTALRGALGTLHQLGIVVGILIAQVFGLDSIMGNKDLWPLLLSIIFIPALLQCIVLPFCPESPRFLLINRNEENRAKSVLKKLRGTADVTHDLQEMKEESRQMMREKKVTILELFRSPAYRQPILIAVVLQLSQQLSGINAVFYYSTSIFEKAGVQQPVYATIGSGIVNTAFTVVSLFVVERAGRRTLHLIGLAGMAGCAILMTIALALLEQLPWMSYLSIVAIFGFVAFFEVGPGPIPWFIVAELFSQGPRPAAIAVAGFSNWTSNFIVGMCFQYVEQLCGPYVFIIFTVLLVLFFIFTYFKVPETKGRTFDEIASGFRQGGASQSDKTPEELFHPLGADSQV
Source text: It is well known that a combination of small-molecule inhibitors of mitochondrial electron transport chain and glucose catabolism synergistically suppress ATP production and impair cellular viability (Ulanovskaya et al., 2008, 2011; Liu, et al. 2001). We therefore used DLD1 or CHO-K1 cells in combination with an oxidative phosphorylation inhibitor to identify GLUT inhibitors. Cell lines were maintained in DMEM medium supplemented with 10% FCS and 1% Penicillin-Streptomycin solution and 2% Glutamax. The cells were treated with trypsin and seeded into 384 plates at a density of 4000 cells/well. The cells were then cultured overnight in glucose free media containing 1% FCS to reduce intracellular ATP levels. After 24 h the cells were incubated at 37° C. containing the appropriate glucose or in case of GLUT2 fructose concentration (1 mM and 30 mM respectively) with or without compounds and 1 uM Rotenone for 15 min. The CellTiter-Glo® Luminescent Cell Viability Assay from Promega was then used to measure ATP levels. Compounds able to reduce the ATP Levels within 15 min of glucose application were considered to be glucose uptake inhibitors.

pIC50	SMILES
7.01	Cc1nn(Cc2ccccc2C#N)cc1NC(=O)c1cc(C(F)(F)F)nc2ccc(Br)cc12 [Example 14, 6-bromo-N-[1-(2-cyanobenzyl)-3-methyl-1H-pyrazol-4-yl]-2-(trifluoromethyl)quinoline-4-carboxamide]
6.71	COc1ccc(Cn2cc(NC(=O)c3cc(OC)nc4ccccc34)c(C(F)(F)F)n2)cc1 [Example 48, 2-methoxy-N-[1-(4-methoxybenzyl)-3-(trifluoromethyl)-1H-pyrazol-4-yl]quinoline-4-carboxamide]
7.70	CN(C)C(=O)c1nn(Cc2ccc(F)cc2)cc1NC(=O)c1cc(C(F)(F)F)nc2ccc(Br)cc12 [Example 19, 6-bromo-N-[3-(dimethylcarbamoyl)-1-(4-fluorobenzyl)-1H-pyrazol-4-yl]-2-(trifluoromethyl)quinoline-4-carboxamide]
8.28	Cc1nn(Cc2ccc(C#N)cc2)cc1NC(=O)c1cc(C2CC2)nc2ccc(Br)cc12 [Example 51, 6-bromo-N-[1-(4-cyanobenzyl)-3-methyl-1H-pyrazol-4-yl]-2-cyclopropylquinoline-4-carboxamide]
5.13	COCCNC(=O)c1nn(Cc2ccc(C#N)cc2)cc1NC(=O)c1cc(C(F)(F)F)nc2ccc(Br)cc12 [Example 30, 6-bromo-N-{1-(4-cyanobenzyl)-3-[(2-methoxyethyl)carbamoyl]-1H-pyrazol-4-yl}-2-(trifluoromethyl)quinoline-4-carboxamide]
5.77	CN(C)C(=O)c1nn(Cc2ccc(C#N)cc2)cc1NC(=O)c1cc(C(F)(F)F)nc2ccc(Br)cc12 [Example 29, 6-bromo-N-[1-(4-cyanobenzyl)-3-(dimethylcarbamoyl)-1H-pyrazol-4-yl]-2-(trifluoromethyl)quinoline-4-carboxamide]
6.05	CNC(=O)c1nn(Cc2ccc(C#N)cc2)cc1NC(=O)c1cc(C(F)(F)F)nc2ccc(Br)cc12 [Example 27, 6-bromo-N-[1-(4-cyanobenzyl)-3-(methylcarbamoyl)-1H-pyrazol-4-yl]-2-(trifluoromethyl)quinoline-4-carboxamide]
7.47	CCc1nn(Cc2ccc(C#N)cc2)cc1NC(=O)c1cc(C(N)=O)nc2cc(F)ccc12 [Example 59, N^4-[1-(4-cyanobenzyl)-3-ethyl-1H-pyrazol-4-yl]-7-fluoroquinoline-2,4-dicarboxamide]
6.90	Cc1nn(Cc2ccc(F)cc2)cc1NC(=O)c1cc(C2CC2)nc2ccc(F)cc12 [Example 6, 2-cyclopropyl-6-fluoro-N-[1-(4-fluorobenzyl)-3-methyl-1H-pyrazol-4-yl]quinoline-4-carboxamide]
7.19	CNC(=O)c1nc(Cn2cc(NC(=O)c3cc(C(F)(F)F)nc4ccc(Br)cc34)c(C)n2)no1 [Example 69, 6-bromo-N-(3-methyl-1-{[5-(methylcarbamoyl)-1,2,4-oxadiazol-3-yl]methyl}-1H-pyrazol-4-yl)-2-(trifluoromethyl)quinoline-4-carboxamide]
6.53	Cc1cc(Cn2cc(NC(=O)c3cc(C(F)(F)F)nc4ccc(Br)cc34)c(C)n2)no1 [Example 71, 6-bromo-N-{3-methyl-1-[(5-methyl-1,2-oxazol-3-yl)methyl]-1H-pyrazol-4-yl}-2-(trifluoromethyl)quinoline-4-carboxamide]
6.90	CS(=O)(=O)c1ccc(Cn2cc(NC(=O)c3cc(C(N)=O)nc4cc(F)ccc34)c(C(F)(F)F)n2)cc1 [Example 45, 7-fluoro-N^4-{1-[4-(methylsulfonyl)benzyl]-3-(trifluoromethyl)-1H-pyrazol-4-yl}quinoline-2,4-dicarboxamide]
6.86	Cc1nn(Cc2ccccc2C#N)cc1NC(=O)c1cc(C(N)=O)nc2ccccc12 [Example 16, N^4-[1-(2-cyanobenzyl)-3-methyl-1H-pyrazol-4-yl]quinoline-2,4-dicarboxamide]
6.26	N#Cc1ccc(Cn2cc(NC(=O)c3cc(C(F)(F)F)nc4ccc(Br)cc34)c(C(N)=O)n2)cc1 [Example 28, 6-bromo-N-[3-carbamoyl-1-(4-cyanobenzyl)-1H-pyrazol-4-yl]-2-(trifluoromethyl)quinoline-4-carboxamide]
6.75	Cc1nn(Cc2ccc(F)cc2)cc1NC(=O)c1cc(C(F)(F)F)nc2c(Cl)cc(Cl)cc12 [Example 7, 6,8-dichloro-N-[1-(4-fluorobenzyl)-3-methyl-1H-pyrazol-4-yl]-2-(trifluoromethyl)quinoline-4-carboxamide]
6.37	NC(=O)c1cc(C(=O)Nc2cn(Cc3ccncc3)nc2C(F)(F)F)c2ccccc2n1 [Example 41, N^4-[1-(pyridin-4-ylmethyl)-3-(trifluoromethyl)-1H-pyrazol-4-yl]quinoline-2,4-dicarboxamide]
6.37	CCc1noc(Cn2cc(NC(=O)c3cc(C(N)=O)nc4ccccc34)c(C)n2)n1 [Example 66, N^4-{1-[(3-ethyl-1,2,4-oxadiazol-5-yl)methyl]-3-methyl-1H-pyrazol-4-yl}quinoline-2,4-dicarboxamide]
7.82	Cc1nn(Cc2ccc(F)cc2)cc1NC(=O)c1cc(C(N)=O)nc2ccccc12 [Example 5, N^4-[1-(4-fluorobenzyl)-3-methyl-1H-pyrazol-4-yl]quinoline-2,4-dicarboxamide]
8.41	COc1ccc(Cn2cc(NC(=O)c3cc(C(N)=O)nc4cc(F)ccc34)c(C(F)(F)F)n2)cc1 [Example 50, 7-fluoro-N^4-[1-(4-methoxybenzyl)-3-(trifluoromethyl)-1H-pyrazol-4-yl]quinoline-2,4-dicarboxamide]
8.51	Cc1nn(Cc2ccc(C#N)cc2)cc1NC(=O)c1cc(C(N)=O)nc2cc(F)ccc12 [Example 52, N^4-[1-(4-cyanobenzyl)-3-methyl-1H-pyrazol-4-yl]-7-fluoroquinoline-2,4-dicarboxamide]
6.86	COc1ccc(Cn2cc(NC(=O)c3cc(C(F)(F)F)nc4ccc(Br)cc34)c(C(F)(F)F)n2)cc1 [Example 47, 6-bromo-N-[1-(4-methoxybenzyl)-3-(trifluoromethyl)-1H-pyrazol-4-yl]-2-(trifluoromethyl)quinoline-4-carboxamide]
4.70	CNC(=O)c1nn(Cc2ccc(F)cc2)cc1NC(=O)c1cc(C(F)(F)F)nc2ccc(Br)cc12 [Example 22, 6-bromo-N-[1-(4-fluorobenzyl)-3-(methylcarbamoyl)-1H-pyrazol-4-yl]-2-(trifluoromethyl)quinoline-4-carboxamide]
6.36	CS(=O)(=O)c1ccc(Cn2cc(NC(=O)c3cc(C(F)(F)F)nc4ccc(Br)cc34)c(C(F)(F)F)n2)cc1 [Example 43, 6-bromo-N-{1-[4-(methylsulfonyl)benzyl]-3-(trifluoromethyl)-1H-pyrazol-4-yl}-2-(trifluoromethyl)quinoline-4-carboxamide]
5.78	COC(=O)c1nn(Cc2ccc(C#N)cc2)cc1NC(=O)c1cc(C(F)(F)F)nc2ccc(Br)cc12 [Example 24, methyl 4-({[6-bromo-2-(trifluoromethyl)quinolin-4-yl]carbonyl}amino)-1-(4-cyanobenzyl)-1H-pyrazole-3-carboxylate]
4.99	N#Cc1ccc(Cn2cc(NC(=O)c3cc(C(F)(F)F)nc4ccc(Br)cc34)c(C(=O)O)n2)cc1 [Example 25, 4-({[6-bromo-2-(trifluoromethyl)quinolin-4-yl]carbonyl}amino)-1-(4-cyanobenzyl)-1H-pyrazole-3-carboxylic acid]
6.95	Cc1nn(Cc2ccc(F)cc2)cc1NC(=O)c1cc(C(F)(F)F)nc2ccc(Br)cc12 [Example 4, 6-bromo-N-[1-(4-fluorobenzyl)-3-methyl-1H-pyrazol-4-yl]-2-(trifluoromethyl)quinoline-4-carboxamide]

Source: patent US20170226081A1, “GLUCOSE TRANSPORT INHIBITORS” (Bayer Pharma Aktiengesellschaft, priority 2014, published 2017)
